# Patent publication US12392768B2, “Methods for determining blood gas or metabolic parameters” (RADIOMETER MEDICAL APS, priority 2019, dated 2025)
# “Also recorded” adds a separate entry of the source. Structures can show the parent of a compound that is named as a salt.
# Legend:
# platelets [1] = experiment: Microscopic wet mount images of fixed blood samples, platelet aggregation (Example 2); format: cell-based; conditions: 40x phase contrast, eptifibatide 20 μM added to heparin
# Text: Venous blood samples drawn, mixed and fixed with 10% formalin solution, as described before in Example 1 were used to prepare wet mounts on a glass slide and covered with a glass coverslip. Wet mount samples of fixed blood cells were then imaged with a Leica 750 microscope using a 40× phase-contrast air objective.
# platelets and WBCs = experiment: Wet mount images of stained and hemolyzed blood samples (Example 3); format: cell-based; conditions: for WBC aggregates / platelet satellinism (platelets binding to WBCs) / platelets (single or aggregated) in stained wet mounts: PicoSAM samples, tirofiban 1 μM, eptifibatide 20 μM, iloprost 100 nM, EDTA anti-coagulated blood
# Method: Venous blood samples were drawn and mixed as described before in Example 1 and used to prepare stained wet mounts images. Blood samples were mixed with a staining and hemolyzing agent (methylene blue and deoxycholic acid, respectively) and incubated at 47° C. in a water bath for 30 seconds. Stained and hemolyzed blood samples were then prepared in wet mount samples on a glass slide and covered with a glass coverslip. Images of stained samples were then acquired with a Leica 750 microscope using a 40× air objective in bright field mode. An image processing software (FIJI, ImageJ) was used to select regions of interest (ROIs) of representative stained WBCs from the images.
# platelets [2] = experiment: Manual platelet count versus EDTA reference (Example 4); format: cell-based; conditions: for Mean Manual PLT count: Iloprost 1 μM in PicoSAM, EDTA reference
# Method: For each experiment PICO70 syringe samplers (Radiometer Medical ApS) were prepared just before sample drawing. For “LiHep” (Liquid Heparin) conditions, PICO70 samplers were emptied of the gold ball and heparin brick and 15 μl of aqueous liquid balanced heparin comprising heparin lithium (Celsus Laboratories) and heparin sodium (Celsus Laboratories) (final heparin conc. 60 IU/mL blood) and 15 μl of the solvent of the tested drug were added. For “PicoSAM” conditions, unmodified PICO70 samplers (with gold ball and heparin brick) were used and 15 μl of the solvent of the respective tested drug was added. For “LiHep xxx drug” conditions, PICO70 samplers were emptied as described for LiHep and 15 μl of liquid balanced heparin (final heparin conc. 60 IU/mL blood) and 15 μl of the dissolved tested drug were added. For “PicoSAM xxx drug” conditions, unmodified PICO70 samplers (with gold ball and heparin brick) were used and 15 μl of the dissolved tested drug was added. […] An EDTA tube (BD Vacutainer with spray-coated K2EDTA, 10 ml) and duplicate samples of all conditions of PICO70 syringe samplers were filled by drawing venous blood via a butterfly needle using a sealed VTC (vented tip cap) to fill the otherwise self-aspirating PICO70 samplers with 1.5 mL venous whole blood. Samplers were inverted 8 times immediately after drawing to insure proper anti-coagulation of the samples. The blood samples were mixed gently by hand (samplers without gold ball) or on a SAM mixer (Radiometer Medical ApS) for 15 minutes after drawing the sample. Mixed samples were fixed immediately with 10% formalin solution (1:1 dilution of blood in formalin) for at least 10 minutes and further diluted 1:10 in platelet dilution solution to hemolyze red blood cells (RBCs) to assessed manual platelet count using a hemocytometer. […] Single platelet counts were adjusted for dilution with liquid heparin and or dissolved drug solution to calculate single platelet concentrations.
# platelets [3] = experiment: ABX platelet count, automated hematology analyzer (Example 4); format: cell-based; conditions: for Mean ABX PLT count: Iloprost 1 μM in PicoSAM, EDTA reference
# Method: Blood samples drawn and mixed after 15 minutes as described above were assessed with an automated hematology analyzer (Horiba, ABX Pentra 60C+) (ABX) for complete blood count (CBC) with 5-diff including WBC concentration, platelet concentration, mean platelet volume (MPV), concentrations and fractions of neutrophils, lymphocytes, monocytes, eosinophils and basophils, RBC concentration, hematocrit, hemoglobin concentration, RBC descriptive parameters (MCV, MCH, MCHC, RDW). Samples were prepared from several donors. Measured platelet concentration was used to compare to manually assessed platelet concentrations of iloprost heparin samples (in PICO70 samplers) and EDTA anti-coagulated samples. For control, EDTA samples with no platelet aggregates are used as reference measurement for the measured automated ABX platelet concentration.
# platelets [4] = experiment: Manual count of single platelets and platelet aggregates in heparinized blood with anti-platelet drug candidates (Example 1); conditions: heparinized venous blood; for count of single platelets compared to EDTA reference / number of platelet aggregates compared to EDTA control: two concentration levels per drug; for platelet count compared to LiHep and PicoSAM controls: L-Arginine 600 μM and 6 mM, dipyridamole 10 and 100 μM
# Method: Each experiment was conducted on a separate day with blood from one voluntary donor testing one anti-platelet drug candidate. For each experiment PICO70 syringe samplers (Radiometer Medical ApS) were prepared just before sample drawing. For “LiHep” (Liquid Heparin) conditions, PICO70 samplers were emptied of the gold ball and heparin brick and 15 μl of aqueous liquid balanced heparin comprising heparin lithium (Celsus Laboratories) and heparin sodium (Celsus Laboratories) (final heparin conc. 60 IU/mL blood) and 15 μl of the solvent of the tested drug were added. For “PicoSAM” conditions, unmodified PICO70 samplers (with gold ball and heparin brick) were used and 15 μl of the solvent of the respective tested drug was added. For “LiHep xxx drug” conditions, PICO70 samplers were emptied as described for LiHep and 15 μl of liquid balanced heparin (final heparin conc. 60 IU/mL blood) and 15 μl of the dissolved tested drug were added. For “PicoSAM xxx drug” conditions, unmodified PICO70 samplers (with gold ball and heparin brick) were used and 15 μl of the dissolved tested drug was added. […] 600 μM and 6 mM) and dipyridamole (Sigma, D9766; dissolved in 1:10 or 1:100 DMSO in saline, final conc. 10 and 100 μM). An EDTA tube (BD Vacutainer with spray-coated K2EDTA, 10 ml) and duplicate samples of all conditions of PICO70 syringe samplers were filled by drawing venous blood via a butterfly needle using a sealed VTC (vented tip cap) to fill the otherwise self-aspirating PICO70 samplers with 1.5 mL venous whole blood. Samplers were inverted 8 times immediately after drawing to insure proper anti-coagulation of the samples. The blood samples were mixed gently by hand (samplers without gold ball) or on a SAM mixer (Radiometer Medical ApS) for 15 minutes after drawing the sample. Mixed samples were fixed immediately with 10% formalin solution (1:1 dilution of blood in formalin) for at least 10 minutes and further diluted 1:10 in platelet dilution solution to hemolyze red blood cells (RBCs) to assessed manual platelet count using a hemocytometer. […] Single platelet counts were adjusted for dilution with liquid heparin and or dissolved drug solution to calculate single platelet concentrations.
molecule,measurement,setting,value
"O=C(O)CN(CCN(CC(=O)O)CC(=O)O)CC(=O)O [EDTA, Ethylenediaminetetraacetic acid]",platelet aggregates in microscopic images of blood samples,platelets [1],prevents platelet activation and maintains single platelets; also recorded: cannot be seen
same,WBC aggregates,platelets and WBCs,same results
same,platelet satellinism (platelets binding to WBCs),platelets and WBCs,same results
same,platelets (single or aggregated) in stained wet mounts,platelets and WBCs,same results
same,Mean Manual PLT count,platelets [2]; Donor ID 4,200 PLT/nl
same,Mean Manual PLT count,platelets [2]; Donor ID 5,242 PLT/nl
same,Mean Manual PLT count,platelets [2]; Donor ID 6,189 PLT/nl
same,Mean Manual PLT count,platelets [2]; Donor ID 7,249 PLT/nl
same,Mean Manual PLT count,platelets [2]; Donor ID 8,207 PLT/nl
same,Mean Manual PLT count,platelets [2]; Donor ID 9,255 PLT/nl
same,Mean ABX PLT count,platelets [3]; Donor ID 4,200 PLT/nl
same,Mean ABX PLT count,platelets [3]; Donor ID 5,259 PLT/nl
same,Mean ABX PLT count,platelets [3]; Donor ID 6,185 PLT/nl
same,Mean ABX PLT count,platelets [3]; Donor ID 7,240 PLT/nl
same,Mean ABX PLT count,platelets [3]; Donor ID 8,202 PLT/nl
same,Mean ABX PLT count,platelets [3]; Donor ID 9,236 PLT/nl
eptifibatide acetate,platelet aggregates in microscopic images of blood samples,platelets [1],cannot be observed; also recorded: cannot be seen
same,WBC aggregates,platelets and WBCs,WBC aggregates were also observed
same,platelet satellinism (platelets binding to WBCs),platelets and WBCs,platelet satellinism
same,platelets (single or aggregated) in stained wet mounts,platelets and WBCs,single platelets
same,count of single platelets compared to EDTA reference,platelets [4],comparable
same,number of platelet aggregates compared to EDTA control,platelets [4],no or few
"OCCN(CCO)c1nc(N2CCCCC2)c2nc(N(CCO)CCO)nc(N3CCCCC3)c2n1 [Dipyridamole, dipyridamole]",platelet count compared to LiHep and PicoSAM controls,platelets [4],slightly higher
"Clc1ccccc1CN1CCc2sccc2C1 [Ticlopidine, ticlopidine hydrochloride]",count of single platelets compared to EDTA reference,platelets [4],similar
"CCCCS(=O)(=O)N[C@@H](Cc1ccc(OCCCCC2CCNCC2)cc1)C(=O)O [Tirofiban, tirofiban hydrochloride monohydrate]",WBC aggregates,platelets and WBCs,WBC aggregates were also observed
same,platelet satellinism (platelets binding to WBCs),platelets and WBCs,platelet satellinism
same,platelets (single or aggregated) in stained wet mounts,platelets and WBCs,single platelets
same,count of single platelets compared to EDTA reference,platelets [4],comparable
same,number of platelet aggregates compared to EDTA control,platelets [4],no or few
"CC#CCC(C)[C@H](O)/C=C/[C@@H]1[C@H]2C/C(=C/CCCC(=O)O)C[C@H]2C[C@H]1O (stereo partly drawn) [Iloprost, iloprost]",WBC aggregation in the blood sample,platelets and WBCs,very low WBC aggregation
same,WBC aggregates,platelets and WBCs,not platelet satellinism or WBC aggregates
same,platelet satellinism (platelets binding to WBCs),platelets and WBCs,not platelet satellinism
same,platelets (single or aggregated) in stained wet mounts,platelets and WBCs,single platelets
same,Mean Manual PLT count,platelets [2]; Donor ID 4,198 PLT/nl
same,Mean Manual PLT count,platelets [2]; Donor ID 5,242 PLT/nl
same,Mean Manual PLT count,platelets [2]; Donor ID 6,154 PLT/nl
same,Mean Manual PLT count,platelets [2]; Donor ID 7,247 PLT/nl
same,Mean Manual PLT count,platelets [2]; Donor ID 8,203 PLT/nl
same,Mean Manual PLT count,platelets [2]; Donor ID 9,202 PLT/nl
same,"average performance of platelet count compared to EDTA samples as reference, manual count","platelets [2]; PicoSAM 100 nM iloprost, one donor",97%
same,"average performance of platelet count compared to EDTA samples as reference, manual count","platelets [2]; PicoSAM 1 μM iloprost, eight donors",93%
same,Mean ABX PLT count,platelets [3]; Donor ID 4,204 PLT/nl
same,Mean ABX PLT count,platelets [3]; Donor ID 5,253 PLT/nl
same,Mean ABX PLT count,platelets [3]; Donor ID 6,173 PLT/nl
same,Mean ABX PLT count,platelets [3]; Donor ID 7,233 PLT/nl
same,Mean ABX PLT count,platelets [3]; Donor ID 8,191 PLT/nl
same,Mean ABX PLT count,platelets [3]; Donor ID 9,216 PLT/nl
same,"average performance of platelet count compared to EDTA samples as reference, ABX platelet count","platelets [3]; PicoSAM 1 μM iloprost, seven donors",97%
same,count of single platelets compared to EDTA reference,platelets [4],comparable
same,number of platelet aggregates compared to EDTA control,platelets [4],no or few
Heparin,platelet aggregates in microscopic images of blood samples,platelets [1],allows or even potentiates platelet aggregation; also recorded: showed platelet aggregates
N=C(N)NCCC[C@H](N)C(=O)O [L-Arginine],count of single platelets compared to EDTA reference,platelets [4],decreased
same,number of platelet aggregates compared to EDTA control,platelets [4],higher
same,platelet count compared to LiHep and PicoSAM controls,platelets [4],slightly higher
